The subject of one assay is db/db mice. Nature of the assay: Study for glucose lowering effect in db/db mouse. Type of assay: in vivo. Particulars: oral, 0.3 mg/kg, relative to control group; for inhibition in vivo at 0.3 mg/kg: Mus musculus, 6 hours, Table 3-2, read-out: Percent reduction of blood glucose (%) 6 hours after administration; for Percent reduction of blood glucose (%) 24 hours after administration: Table 3-2. The method, boiled down:
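Male db/db mice, 9–11 weeks old, were grouped (n=5) by body weight/blood glucose and dosed orally by gavage with compound in 0.5% CMC at 0.3 mg/10 mL or 3 mg/10 mL (10 mL/kg); controls got vehicle. Tail blood glucose was measured by hexokinase method before and serially after dosing, expressed as % reduction versus control.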

A further assay has as its target T1, human SGLT2 (Homo sapiens, UniProt P31639).
T1 construct: expressed in transfected cells; host or cells: CHO-K1
T1 sequence (P31639 1-672): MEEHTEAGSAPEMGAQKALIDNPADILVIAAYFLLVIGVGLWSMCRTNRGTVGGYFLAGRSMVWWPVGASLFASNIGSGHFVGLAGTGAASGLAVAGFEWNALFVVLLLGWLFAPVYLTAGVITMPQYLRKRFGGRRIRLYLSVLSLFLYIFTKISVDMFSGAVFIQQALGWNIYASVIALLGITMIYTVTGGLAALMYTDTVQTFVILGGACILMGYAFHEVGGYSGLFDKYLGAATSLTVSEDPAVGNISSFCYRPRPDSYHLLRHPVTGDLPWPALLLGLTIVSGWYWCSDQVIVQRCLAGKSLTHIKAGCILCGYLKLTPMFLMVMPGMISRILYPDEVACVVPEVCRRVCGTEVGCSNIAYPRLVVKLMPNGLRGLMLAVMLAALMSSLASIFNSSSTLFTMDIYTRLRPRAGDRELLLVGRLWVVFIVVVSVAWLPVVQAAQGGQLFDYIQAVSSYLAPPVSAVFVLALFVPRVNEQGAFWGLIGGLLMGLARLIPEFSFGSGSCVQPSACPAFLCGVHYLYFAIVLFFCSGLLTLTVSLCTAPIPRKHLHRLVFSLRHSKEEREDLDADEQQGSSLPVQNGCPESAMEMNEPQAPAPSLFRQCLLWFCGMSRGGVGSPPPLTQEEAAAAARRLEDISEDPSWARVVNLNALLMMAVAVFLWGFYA
Kind of assay: Inhibitory activity against methyl-α-D-glucopyranoside uptake, CHO cells stably expressing human SGLT2. Type of assay: cell-based. The conditions noted are these: for hSGLT2 selectivity: matches hSGLT1 IC50 / hSGLT2 IC50 (formula not stated). The method, boiled down: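 CHO-K1 cells stably expressing human SGLT2 were pre-incubated in sodium-free choline buffer (pH 7.4), then exposed 45 min at 37°C to test compound in sodium buffer containing 1 mM [14C]methyl-α-D-glucopyranoside. Sodium-free buffer gave baseline uptake. After washing, cells were lysed with NaOH/SDS.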

The mark [1] stands for this setting: Table 2-2, read-out: hhSGLT2 IC50 value.
The mark [2] stands for this setting: inhibition of SGLT2, Table 2-1, read-out: IC50 value.

Read-outs that look alike come from different tables or passages of the source.

Turning to `OC[C@H]1O[C@]2(OCc3cc(Cl)c(Cc4ccc5ccccc5c4)cc32)[C@H](O)[C@@H](O)[C@@H]1O` [Example 7, (1S,3′R,4′S,5′S,6′R)-5-chloro-3′,4′,5′,6′-tetrahydro-6′-(hydroxymethyl)-6-(2-naphthylmethyl)-spiro[isobenzofuran-1(3H),2′-[2H]pyran]-3′,4′,5′-triol], the inhibition in vivo at 0.3 mg/kg in the assay on db/db mice came out at 54%. The “Percent reduction of blood glucose (%) 24 hours after administration” value with db/db mice stood at 42%. Besides, the concentration for half-maximal inhibition (IC50) on human SGLT2 (setting [1]) and at human SGLT2 (setting [2]) was 1.7 nM throughout. The hSGLT2 selectivity at human SGLT2 was 224.
In the case of `OC[C@H]1O[C@]2(OCc3cc(Cl)c(Cc4ccc(CCF)cc4)cc32)[C@H](O)[C@@H](O)[C@@H]1O` [Example 8, (1S,3′R,4′S,5′S,6′R)-5-chloro-6-[(4-(2-fluoroethyl)phenyl)methyl]-3′,4′,5′,6′-tetrahydro-6′-(hydroxymethyl)-spiro[isobenzofuran-1(3H),2′-[2H]pyran]-3′,4′,5′-triol], the inhibition in vivo at 0.3 mg/kg in the assay on db/db mice amounted to 48%. Besides, in the assay with db/db mice, the “Percent reduction of blood glucose (%) 24 hours after administration” value amounted to 27%. For the same compound, the IC50 at human SGLT2 (setting [1]) and at human SGLT2 (setting [2]) was 1.1 nM in each case. Moreover, on human SGLT2, the hSGLT2 selectivity was determined as 323.
`CC(C)c1ccc(Cc2cc3c(cc2Cl)CO[C@]32O[C@H](CO)[C@@H](O)[C@H](O)[C@H]2O)cc1` [Example 15, (1S,3′R,4′S,5′S,6′R)-5-chloro-3′,4′,5′,6′-tetrahydro-6′-(hydroxymethyl)-6-[(4-isopropylphenyl)methyl]-spiro[isobenzofuran-1(3H),2′-[2H]pyran]-3′,4′,5′-triol]: in the assay on db/db mice, the inhibition in vivo at 0.3 mg/kg is 50% and the “Percent reduction of blood glucose (%) 24 hours after administration” value stood at 27%. The IC50 – broadly, the concentration that gives 50% inhibition – on human SGLT2 (setting [1]) is 1.7 nM. The IC50 at human SGLT2 (setting [2]) was 1.7 nM. The compound further had a hSGLT2 selectivity on human SGLT2 of 596.
With `CCc1ccc(Cc2cc3c(cc2Cl)CO[C@]32O[C@H](CO)[C@@H](O)[C@H](O)[C@H]2O)cc1` [Example 1, (1S,3′R,4′S,5′S,6′R)-5-chloro-6-[(4-ethylphenyl)methyl]-3′,4′,5′,6′-tetrahydro-6′-(hydroxymethyl)-spiro[isobenzofuran-1(3H),2′-[2H]pyran]-3′,4′,5′-triol], in the assay on db/db mice, the inhibition in vivo at 0.3 mg/kg was 42% and the “Percent reduction of blood glucose (%) 24 hours after administration” value is 32%. Moreover, on human SGLT2 (setting [1]), the half-inhibitory concentration (IC50) is 1.3 nM. Besides, at human SGLT2 (setting [2]), the IC50 is 1.3 nM. For the same compound, on human SGLT2, the hSGLT2 selectivity is on record as 155.
For the compound `CCCc1ccc(Cc2cc3c(cc2Cl)CO[C@]32O[C@H](CO)[C@@H](O)[C@H](O)[C@H]2O)cc1` [Example 9, (1S,3′R,4′S,5′S,6′R)-5-chloro-3′,4′,5′,6′-tetrahydro-6′-(hydroxymethyl)-6-[(4-propylphenyl)methyl]-spiro[isobenzofuran-1(3H),2′-[2H]pyran]-3′,4′,5′-triol], in the assay on db/db mice, the inhibition in vivo at 0.3 mg/kg worked out at 48% and the “Percent reduction of blood glucose (%) 24 hours after administration” value stood at 28%. Also, on human SGLT2 (setting [1]), the IC50 came out at 2.3 nM. In addition, the concentration for half-maximal inhibition (IC50) at human SGLT2 (setting [2]) was determined as 2.3 nM. For the same compound, the hSGLT2 selectivity on human SGLT2 came to 590.
On to `Cc1cc2c(cc1Cc1ccc(C(C)C)cc1)[C@]1(OC2)O[C@H](CO)[C@@H](O)[C@H](O)[C@H]1O` [Example 21, (1S,3′R,4′S,5′S,6′R)-3′,4′,5′,6′-tetrahydro-6′-(hydroxymethyl)-6-[(4-isopropylphenyl)methyl]-5-methyl-spiro[isobenzofuran-1(3H),2′-[2H]pyran]-3′,4′,5′-triol], for which, in the assay on db/db mice, the inhibition in vivo at 0.3 mg/kg was determined as 51%. For the same compound, the “Percent reduction of blood glucose (%) 24 hours after administration” value in the assay on db/db mice is 33%. Moreover, the IC50 on human SGLT2 (setting [1]) was 2 nM; at human SGLT2 (setting [2]), 2.1 nM. The compound also displayed a hSGLT2 selectivity at human SGLT2 of 341.
On the same counts, the results for `CCOc1ccc(Cc2cc3c(cc2Cl)CO[C@]32O[C@H](CO)[C@@H](O)[C@H](O)[C@H]2O)cc1` [Example 5, (1S,3′R,4′S,5′S,6′R)-5-chloro-6-[(4-ethoxyphenyl)methyl]-3′,4′,5′,6′-tetrahydro-6′-(hydroxymethyl)-spiro[isobenzofuran-1(3H),2′-[2H]pyran]-3′,4′,5′-triol] are 52%, 25%, 1.5 nM, 1.5 nM and 283.
Turning to `CCc1ccc(Cc2cc3c(cc2C)CO[C@]32O[C@H](CO)[C@@H](O)[C@H](O)[C@H]2O)cc1` [Comparative Compound 1, 1,1-anhydro-1-C-[5-(4-ethylphenyl)methyl-2-(hydroxymethyl)-4-methylphenyl]-β-glucopyranose, reference compound], the IC50 on human SGLT2 (setting [1]) is 1.6 nM. Also, the hSGLT2 selectivity at human SGLT2 was 83.

Values taken from patent publication US20110275703A1, “SUBSTITUTED SPIROKETAL DERIVATIVES AND USE THEREOF AS THERAPEUTIC DRUG FOR DIABETES” (CHUGAI SEIYAKU KABUSHIKI KAISHA, priority 2007, published 2011).
